Reference: EP0540185A1, “4'-(N-substituted-N-oxide)staurosporine derivatives” (SCHERING CORPORATION, priority 1991, dated 1993)

Tests used:
[1] = molecular target: partially purified rat brain PKC; experiment: Mixed micellular protein kinase C (PKC) assay; assay type: biochemical; settings: for IC50: histone III-S substrate, 23°C, 15 min, 2% DMSO; for MLCK/PKC: selectivity, ratio of IC50 MLCK to IC50 PKC
Experimental: (§1) The below listed Test Methods A and B were run in accordance with the procedures described in Bishop, W.R., Petrin, J., Wang, L., Ramesh, U., and Doll, R.J. (1990) Biochemical Pharmacology, Vol. 40,2129-2135 and Hannun et al. J. Biol. Chem. (1985), Vol. 260, 10039-10043, which are herein incorporated by reference with the following modifications.
A. Protein Kinase C ("PKC") Protocol
Mixed micellular protein kinase C assays were conducted in accordance with the methods described in the two articles cited just above (namely, Bishop et al, and Hannun et al), in a reaction mixture (0.25 mL total volume) containing: 20 mM Tris-HCl (pH 7.5); […] histone III-S; 10 mM MgCl₂; 5 mM [g-32P]ATP (4 x 10^6 cpm/mmol); 200 mM CaCl₂; 32 mg/mL of phosphatidylserine; 1.6 mg/mL of 1-oleoyl-2-acetylglycerol and various concentrations of compounds of this invention added from a dimethyl-sulfoxide (DMSO) stock solution. The final concentration of DMSO in the reaction was 2% w/v. Reactions were started by addition of approximately […] of partially purified rat brain PKC and allowed to proceed at 23°C for 15 min. Reactions were terminated by collection of trichloroacetic acid-precipitated phosphorylated histone on GF/C filters using a Brandel Cell Harvester (Model No. M-24-R).

[2] = molecular target: Myosin light chain kinase (MLCK) (Homo sapiens, UniProt Q15746); experiment: Myosin light chain kinase (MLCK) assay; assay type: biochemical; settings: MLCK substrate peptide, 10 nM calmodulin, 10 minutes
Myosin light chain kinase (MLCK), sequence (Q15746 whole entry): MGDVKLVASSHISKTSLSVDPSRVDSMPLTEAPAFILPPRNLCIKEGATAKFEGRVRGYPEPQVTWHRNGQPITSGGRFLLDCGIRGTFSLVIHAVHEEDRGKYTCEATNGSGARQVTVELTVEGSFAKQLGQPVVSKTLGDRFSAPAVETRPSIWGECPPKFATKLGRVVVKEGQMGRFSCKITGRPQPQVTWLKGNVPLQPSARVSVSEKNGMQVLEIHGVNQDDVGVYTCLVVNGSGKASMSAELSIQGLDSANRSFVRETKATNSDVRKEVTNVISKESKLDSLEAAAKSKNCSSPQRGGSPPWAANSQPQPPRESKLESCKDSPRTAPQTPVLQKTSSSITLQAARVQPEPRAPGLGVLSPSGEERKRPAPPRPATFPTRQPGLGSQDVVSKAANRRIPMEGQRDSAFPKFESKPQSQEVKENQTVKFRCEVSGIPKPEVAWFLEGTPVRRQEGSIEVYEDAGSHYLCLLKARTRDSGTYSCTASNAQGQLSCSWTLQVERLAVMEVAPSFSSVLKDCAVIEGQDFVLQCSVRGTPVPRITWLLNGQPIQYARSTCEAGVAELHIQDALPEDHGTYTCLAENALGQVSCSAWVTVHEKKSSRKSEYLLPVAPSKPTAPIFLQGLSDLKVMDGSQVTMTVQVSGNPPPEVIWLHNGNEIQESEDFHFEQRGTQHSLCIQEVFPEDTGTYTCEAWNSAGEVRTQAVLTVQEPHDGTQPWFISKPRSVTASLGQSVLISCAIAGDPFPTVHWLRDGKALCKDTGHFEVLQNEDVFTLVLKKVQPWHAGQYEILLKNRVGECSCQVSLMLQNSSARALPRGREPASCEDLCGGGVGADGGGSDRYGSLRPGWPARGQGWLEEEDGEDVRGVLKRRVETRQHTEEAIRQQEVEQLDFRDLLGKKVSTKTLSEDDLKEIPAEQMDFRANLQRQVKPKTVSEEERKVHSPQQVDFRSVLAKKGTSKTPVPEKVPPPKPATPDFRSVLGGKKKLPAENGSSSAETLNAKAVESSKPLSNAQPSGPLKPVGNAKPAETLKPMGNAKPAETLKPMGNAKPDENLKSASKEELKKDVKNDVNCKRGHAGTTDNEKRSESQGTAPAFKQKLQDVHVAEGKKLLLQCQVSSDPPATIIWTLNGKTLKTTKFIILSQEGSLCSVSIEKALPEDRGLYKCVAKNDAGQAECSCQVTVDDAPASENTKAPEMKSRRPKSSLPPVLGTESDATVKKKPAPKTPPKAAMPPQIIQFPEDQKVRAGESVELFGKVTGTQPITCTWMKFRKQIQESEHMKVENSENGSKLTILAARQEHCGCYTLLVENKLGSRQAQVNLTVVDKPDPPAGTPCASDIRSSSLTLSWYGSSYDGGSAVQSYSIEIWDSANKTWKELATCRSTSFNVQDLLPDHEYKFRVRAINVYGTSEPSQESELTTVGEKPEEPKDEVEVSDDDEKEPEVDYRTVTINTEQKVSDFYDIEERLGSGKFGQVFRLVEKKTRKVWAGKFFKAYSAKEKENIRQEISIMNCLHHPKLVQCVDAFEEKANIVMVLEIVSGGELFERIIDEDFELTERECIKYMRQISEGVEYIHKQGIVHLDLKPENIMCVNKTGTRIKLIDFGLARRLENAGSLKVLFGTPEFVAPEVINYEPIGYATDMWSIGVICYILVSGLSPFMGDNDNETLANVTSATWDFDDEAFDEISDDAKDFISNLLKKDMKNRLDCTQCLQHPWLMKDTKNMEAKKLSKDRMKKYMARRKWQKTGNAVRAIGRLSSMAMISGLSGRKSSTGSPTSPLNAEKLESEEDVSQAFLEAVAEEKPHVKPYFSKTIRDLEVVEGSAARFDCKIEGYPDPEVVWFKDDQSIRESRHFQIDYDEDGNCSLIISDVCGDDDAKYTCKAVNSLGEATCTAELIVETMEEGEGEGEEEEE
Experimental: as §1
B. Myosin Light Chain Kinase ("MLCK") Protocol
Myosin light chain kinase (MLCK) assays were conducted in accordance with the methods of the Bishop et al. and Hannun et al. articles listed above in a reaction mixture containing 30 mM MLCK substrate peptide (Lys-Lys-Arg-Pro-Gln-Arg-Ala-Thr-Ser-Asn-Val-Phe-Ser-NH₂), 10 nM calmodulin, 25 mM [g-32P]ATP; 0.1 mM Ca⁺² acetate and 10 mM Mg⁺² acetate. Reactions were stopped after 10 minutes by addition of […] of 375 mM H₃PO₄ and spotting on phosphocellulose P81 paper.

[3] = test system: Normal Human Epidermal Keratinocyte (NHEK) Cultures; experiment: Inhibition of spontaneous and induced cornified envelope (CE) formation in NHEK cultures; assay type: cell-based; parameters: CE formation induced by high calcium-containing media: unit of the concentration uncertain; settings: for CE formation induced by high calcium-containing media: 1.6 mM Ca+2 media
Experimental: C. Inhidition of Spontaneous and Induced Cornified Envelope ("CE") Formation in Normal Human Epidermal Keratinocyte (NHEK) Cultures.
The data was collected in cultured NHEK cells which were grown in serum-free media to subconflurncy and then treated with DMSO (vehicle control) or various concentration of the compounds of this invention, etretinate (an antipsoriatic aromatic analog of retinoic acid) and staurosporine.
After 15 minutes, the NHEK cells were treated with DMSO (vehicle control), […] of 12-tetradecanoyl-phorbol-13-acetate ("TPA") to evaluate TPA-induced CE formation. In another experiment, the NHEK cells were refed media containing 0.15 mM Ca⁺² (control) or a high calcium-containing media, i.e., a 1.6 mM Ca⁺² media to induce CE formation by such a high calcium-containing media. After 48 hours, the cells so-treated were harvested and viable and total cells were counted. Cornified envelopes were assessed after resuspending cells pellets in buffer containing sodium dodecyl sulfate ("SDS") and dithiothreitol ("DTT"). CE formation induced by TPA or high calcium-containing media was expressed as CE/viable cells and each treatment group was compared to its appropriate control group.

[4] = concentration of <10 mM, NHEK cells

Compound | IC50 [1] [nM] | MLCK/PKC [1] | IC50 [2] [nM] | also measured
COC1C([N+](C)(C)[O-])CC2OC1(C)n1c3ccccc3c3c4c(c5c6ccccc6n2c5c31)C(=O)NC4 (stereo not drawn) [Example 1, 4′ N-methyl-N-oxide of staurosporine] | 3.1 | 11 | 34 | 
COC1C([N+](C)([O-])Cc2ccccc2)CC2OC1(C)n1c3ccccc3c3c4c(c5c6ccccc6n2c5c31)C(=O)NC4 (stereo not drawn) [Example 11, 4′-N-benzyl-N-oxide of staurosporine] | 33 | 16.7 | 55 | CE formation induced by high calcium-containing media ([3]; 500 (unit uncertain) concentration, NHEK cells, 48 hours): 71%; CE formation induced by high calcium-containing media ([3]; 1000 (unit uncertain) concentration, NHEK cells, 48 hours): 74%; TPA-induced CE formation ([3]; concentration of 250 mM, TPA-treated NHEK cells, 48 hours): antagonizes
CN[C@@H]1C[C@H]2O[C@@](C)([C@@H]1OC)n1c3ccccc3c3c4c(c5c6ccccc6n2c5c31)C(=O)NC4 [Staurosporine, staurosporine] |  |  |  | CE formation [3, 4]: potently inhibited; cytotoxicity [3, 4]: cytotoxicity was observed
CCOC(=O)/C=C(C)/C=C/C=C(C)/C=C/c1c(C)cc(OC)c(C)c1C [etretinate, reference compound] |  |  |  | cornified envelope formation / keratinocyte cornification ([3]; human keratinocytes, no concentration given): inhibition of keratinocyte cornification
